The results in this text go back to US20210179591A1, “NEW COMPOUNDS FOR USE AS A THERAPEUTICALLY ACTIVE SUBSTANCE AND IN PARTICULAR FOR USE IN THE TREATMENT OF TUMORS” (ETH ZURICH, priority 2017, published 2021).

Where two headings read alike, the source gives them in different places.

One test deals with T1, GST-DYRK1B (Homo sapiens, UniProt Q9Y463).
T1 construct: purchased ThermoFisher
Briefly: IC50 determination of DYRK1B inhibitors (ADP-Glo in vitro kinase assay with DYRKtide). The format is biochemical. Conditions: ATP 100 μM. On the procedure:
In a preferred embodiment, the compounds of the present invention show inhibition of DYRK1B and/or DYRK1A to a higher extent than expected by the skilled person. The inhibition may be expressed as IC50, i.e. the concentration necessary to inhibit activity to 50%. […] The IC50 value may be determined using methods such as those described in the examples. As such, a suitable method comprises the steps of incubating GST-DYRK1B (e.g. at 5 nM) and DYRKtide (e.g. at 50 μM) in kinase buffer, following compound dispensing (e.g. 1 μl), e.g. 2 μl of ATP (final concentration e.g. 100 μM) and incubating, preferably at room temperature. After that, a detectable compound such as ADP-Glo™ reagent can be dispensed and incubated, preferably at room temperature. Finally, Kinase Detection Reagent can be dispensed and the solution be incubated before measuring.
Compounds of formula 16, 12, 14, 10 and 19 inhibited DYRK1B (SEQ. ID. NO. 1) kinase activity with an IC50 of 2 μM, 2 μM, 3 μM, 4 μM and 3 μM respectively. Titration curves show average of n=3 independent experiments, average±SD.
GST-DYRK1B (5 nM) and DYRKtide (50 μM) (Lucerna-Chem AG, D96-58) diluted in kinase buffer were dispensed in white 384 well plate (3572, Corning, N.Y., USA) (2 μl/well). Following compound dispensing (1 μl), 2 μl of ATP (final concentration 100 μM) was added and incubated for 30 min at room temperature. After that, 5 μl of ADP-Glo™ reagent was dispensed and incubated for 40 min at room temperature. Finally, 10 ul of Kinase Detection Reagent was dispensed and incubated for 30 min before measuring the plate on a Tecan infinite M1000pro plate reader (Luminescence mode).
On the technique in general: ADP-Glo first removes unused ATP, then detects ADP through luciferase.

Another test concerns HT29 cells. The test is described as follows: Immunoblot of p27 Ser10 phosphorylation in HT29 cells cultured in hypoxia. The format is cell-based. Conditions: FIG. 5b. The method, then: (§1) Cells were lysed in lysis buffer (50 mM Tris-HCl pH 7.5, 250 mM NaCl, 0.5% NP-40, 5 mM NaCl, 5 mM NaF, 5 mM EDTA, 0.5 mM EGTA). Protein were separated in 10% SDS/PAGE gels, as previously described. Ser^10-p27 (sc-12939-R) (1:500) and DYRK1B (sc-390417) (1:200) antibodies were purchased from Santa-Cruz, γ-TUBULIN (ab11316) (1:5000) from Abcam, p27 (610242) (1:500) from BD Biosciences and V5 (R960-25) from Life Technology.

Test [1] concerns HT29-HRE MTS (hypoxic cancer cells). Briefly: Compound treatment of multicellular tumor spheroids (MTS), SYTOX cell death in the hypoxic core. The format is cell-based. The following applies: FIGS. 4a to 4e. The method, then: DMSO was used as negative control, AZ191 as positive control and staurosporine (STS) as a general cytotoxic control. Whole MTS was visualized by Hoechst staining and cell death by SYTOX staining. Scale bar 200 μm. […] Average±SD of n>10 MTS from 3 biological replicates are shown. […] After 72h hours in culture, 10 μl of a mix of SYTOX Orange (S11368) (1:1000) and Hoechst 33258 (1 μM) diluted in DMEM was added to each well of the ULA plate and incubated overnight before image acquisition. MTS were imaged with a 5× objective on Zeiss observer Z.1 microscope equipped with an automated stage, with Hoechst channel used for autofocusing. For each well, images of Hoechst, YFP and SYTOX channels were acquired in the middle of the MTS. Images were analyzed with a custom ImageJ script. Briefly, Hoechst channel images were used to generate a mask of the MTS, which was then scaled to 1:3 and transferred to the SYTOX channel to measure the pixel intensity in the core area of the MTS. HT29-HRE solution (20,000 cells/ml) was dispensed in ULA plates (250 μl/well) and spun at 700 g for 5 min. After 48 h, MTS were treated with 10 μl of serial dilutions of AZ191, compound of formula 10 DMSO or STS. The next day a mix of Hoechst and SYTOX was added to the wells. MTS were then processed as described above.

The target in another test is T2, DYRK1B (Homo sapiens, UniProt Q9Y463).
T2 construct: purchased ThermoFisher
Briefly: In vitro kinase assay, immunoblot of p27 Ser10 phosphorylation by recombinant DYRK1B. The format is biochemical. Conditions: recombinant DYRK1B and p27, 100 μM ATP, FIG. 5a. The method, then: as §1
28 ng of GST-DYRK1B (ThermoFisher, NP_004705) and 100 ng of GST-p27 were mixed in 45 μl of kinase buffer (50 mM HEPES (pH 7.5), 1 mM DTT, MgCl2, 0.004% Triton X-100). Serial dilution of AZ191, compound of formula 10 or DMSO were added to the mix and incubated for 5 min at room temperature. 100 μM of ATP was added to start the kinase reaction which was carried out with constant shaking at 30° C. for 30 min. The reaction was terminated by addition of Laemmli buffer and boiled 5 min at 95° C. Finally, the proteins were separated by SDS page and detected by immunoblotting.
For orientation: In western blotting, separated proteins are transferred to a membrane and probed.

[2] abbreviates: IC50 values for selected examples, GST-DYRK1B 5 nM, DYRKtide 50 μM, read-out: IC50.
[3] abbreviates: average of n=3 independent experiments, read-out: IC50 of DYRK1B kinase activity inhibition (ADP-Glo titration curve).

T1 sequence (Q9Y463 whole entry): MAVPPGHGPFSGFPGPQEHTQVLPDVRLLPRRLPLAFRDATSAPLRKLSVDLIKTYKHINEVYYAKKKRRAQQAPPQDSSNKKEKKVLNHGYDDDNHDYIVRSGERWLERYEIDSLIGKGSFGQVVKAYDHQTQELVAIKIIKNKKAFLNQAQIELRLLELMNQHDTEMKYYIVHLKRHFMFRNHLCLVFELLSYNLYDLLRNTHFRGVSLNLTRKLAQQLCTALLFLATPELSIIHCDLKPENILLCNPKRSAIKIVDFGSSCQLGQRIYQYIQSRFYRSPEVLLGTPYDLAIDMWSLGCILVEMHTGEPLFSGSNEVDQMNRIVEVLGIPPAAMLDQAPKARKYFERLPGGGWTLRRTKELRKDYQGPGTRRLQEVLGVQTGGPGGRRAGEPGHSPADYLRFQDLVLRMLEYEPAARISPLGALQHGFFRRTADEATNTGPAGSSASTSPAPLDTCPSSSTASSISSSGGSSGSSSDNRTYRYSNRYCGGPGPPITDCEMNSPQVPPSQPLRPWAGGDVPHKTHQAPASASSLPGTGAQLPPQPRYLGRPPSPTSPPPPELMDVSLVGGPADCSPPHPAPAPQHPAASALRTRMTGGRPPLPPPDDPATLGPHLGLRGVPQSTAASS
T2 sequence (Q9Y463 whole entry): as above

Regarding `NCCCCCNc1nccc(-c2cnn(-c3ccc(F)cc3)c2)n1` [N-{4-[1-(4-fluorophenyl)-1H-pyrazol-4-yl]pyrimidin-2-yl}pentane-1,5-diamine, reference compound], the IC50 on GST-DYRK1B (setting [2]) is 15.6 µM.

Consider `Fc1ccccc1-n1cc(-c2ccnc(NCc3ccncc3)n2)cn1` [compound of formula 10, 4-(1-(2-fluorophenyl)-1H-pyrazole-4-yl)-N-(pyridine-4-ylmethyl)pyrimidine-2-amine], for which the “inhibition of phosphorylation of p27 at serine 10 in cells” value with HT29 cells is listed as “inhibited the phosphorylation of DYRK1B substrate p27 at serine 10”. For the same compound, in test [1], the “activity against hypoxic cancer cells” value is “high activity”. For the same compound, at DYRK1B, the “inhibition of phosphorylation of DYRK1B substrate p27 at serine 10” value is on record as “inhibited the phosphorylation of DYRK1B substrate p27 at serine 10”. Further, on GST-DYRK1B (setting [3]), the IC50 amounted to 4 µM.

For `NCCCCCNc1nccc(-c2cnn(-c3ccccc3F)c2)n1` [N-{4-[1-(2-fluorophenyl)-1H-pyrazol-4-yl]pyrimidin-2-yl}pentane-1,5-diamine], the IC50 on GST-DYRK1B (setting [2]) was found to be 3.97 µM.

In the case of `CC(Cc1ccncc1)Nc1nccc(-c2cnn(-c3ccccc3F)c2)n1` (centres unmarked) [compound of formula 16], the IC50 at GST-DYRK1B (setting [3]) is 2 µM.

Take `OCCCCCNc1nccc(-c2cnn(-c3ccccc3F)c2)n1` [5-({4-[1-(2-fluorophenyl)-1H-pyrazol-4-yl]pyrimidin-2-yl}amino)pentan-1-ol]: the IC50 on GST-DYRK1B (setting [2]) was determined as 2 µM.

Turning to `CCNc1nccc(-c2cnn(-c3ccccc3F)c2)n1` [compound of formula 14], the IC50 on GST-DYRK1B (setting [3]) is 3 µM.

Consider `COc1ccccc1-n1cc(-c2ccnc(NCc3c(C)n[nH]c3C)n2)cn1` [compound of formula 19], for which the IC50 at GST-DYRK1B (setting [3]) is 3 µM.

For `Fc1ccccc1-n1cc(-c2ccnc(NCC(F)F)n2)cn1` [N-(2,2-difluoroethyl)-4-[1-(2-fluorophenyl)-1H-pyrazol-4-yl]pyrimidin-2-amine], the IC50 on GST-DYRK1B (setting [2]) amounted to 6.98 µM.

Take `COc1ccccc1-n1cc(-c2ccnc(NCc3cnc(C)cn3)n2)cn1` [4-[1-(2-methoxyphenyl)-1H-pyrazol-4-yl]-N-[(5-methyl-2-pyrazinyl)methyl]-2-pyrimidinamine]: the IC50 on GST-DYRK1B (setting [2]) was found to be 10.3 µM.

Take `Cc1cccnc1CNc1nccc(-c2cnn(-c3ccccc3F)c2)n1` [4-[1-(2-fluorophenyl)-1H-pyrazol-4-yl]-N-[(3-methyl-2-pyridinyl)methyl]-2-pyrimidinamine]: the IC50 on GST-DYRK1B (setting [2]) stood at 3.52 µM.

Turning to `Fc1ccccc1-n1cc(-c2ccnc(NC3CCOCC3)n2)cn1` [compound of formula 12], the IC50 at GST-DYRK1B (setting [3]) worked out at 2 µM.
